We go through four compounds from patent US20070032513A1, “Quinazoline derivatives” (priority 2003, published 2007).

The term IC50 denotes the concentration at which inhibition is half-maximal. Usually melting point stands for the temperature, or range, at which the solid turns liquid.

The test system of one data set is KB cells. Kind of data set: EGFR driven KB cell proliferation assay, Test (b). Type of data set: cell-based. The settings on record: Homo sapiens, 96 h, EGF 1 ng/ml, incubation for 4 days, MTT. As to the method: This assay measures the ability of a test compound to inhibit the proliferation of KB cells (human naso-pharangeal carcinoma obtained from the American Type Culture Collection (ATCC)).
KB cells were cultured in Dulbecco's modified Eagle's medium (DMEM) containing 10% foetal calf serum, 2 mM glutamine and non-essential amino acids at 37° C. in a 7.5% CO2 air incubator. Cells were harvested from the stock flasks using Trypsin/ethylaminediaminetetraacetic acid EDTA). Cell density was measured using a haemocytometer and viability was calculated using trypan blue solution before being seeded at a density of 1.25×10^3 cells per well of a 96 well plate in DMEM containing 2.5% charcoal stripped serum, 1 mM glutamine and non-essential amino acids at 37° C. in 7.5% CO2 and allowed to settle for 4 hours.
Following adhesion to the plate, the cells are treated with or without EGF (final concentration of 1 ng/ml) and with or without compound at a range of concentrations in dimethylsulfoxide (DMSO) (0.1% final) before incubation for 4 days. Following the incubation period, cell numbers were determined by addition of 50 μl of 3-(4,5-Dimethylthiazol-2-yl)-2,5-diphenyltetrazolium bromide (MTT) (stock 5 mg/ml) for 2 hours. MIT solution was then tipped off, the plate gently tapped dry and the cells dissolved upon the addition of 100 μl of DMSO.
Absorbance of the solubilised cells was read at 540 nm using a Molecular Devices ThermoMax microplate reader. Inhibition of proliferation was expressed as an IC50 value. […] The range of proliferation was calculated from the positive (vehicle plus EGF) and negative (vehicle minus EGF) control values.

For another data set, the target named is T1, EGFR tyrosine kinase (Homo sapiens, UniProt P00533).
T1 construct: Recombinant intracellular fragments of EGFR, erbB2 and erbB4; made in house; host or cells: baculovirus/Sf21 insect cells (cleared lysate used)
Briefly: Protein tyrosine kinase phosphorylation assay, Test (a). The format is biochemical. The settings on record: recombinant intracellular fragment, ATP at Km concentration; read-out: IC50 (nM) Test (a) (Inhibition of EGFR tyrosine kinase protein phosphorylation). As to the method: This test measures the ability of a test compound to inhibit the phosphorylation of a tyrosine containing polypeptide substrate by EGFR, erbB2 or erbB4 tyrosine kinase enzyme.
Recombinant intracellular fragments of EGFR, erbB2 and erbB4 (accession numbers X00588, X03363 and L07868 respectively) were cloned and expressed in the baculovirus/Sf21 system. Lysates were prepared from these cells by treatment with ice-cold lysis buffer (20 mM N-2-hydroxyethylpiperizine-N′-2-ethanesulfonic acid (HEPES) pH7.5, 150 mM NaCl, 10% glycerol, 1% Triton X-100, 1.5 mM MgCl2, 1 mM ethylene glycol-bis(β-aminoethyl ether) N′,N′,N′,N′-tetraacetic acid (EGTA), plus protease inhibitors and then cleared by centrifugation.
Constitutive kinase activity of these recombinant proteins was determined by their ability to phosphorylate a synthetic peptide (made up of a random co-polymer of Glutamic Acid, Alanine and Tyrosine in the ratio of 6:3:1). Specifically, Maxisorb™ 96-well immunoplates were coated with synthetic peptide (0.2 μg of peptide in a 200 μl phosphate buffered saline (PBS) solution and incubated at 4° C. overnight). Plates were washed in 50 mM HEPES pH 7.4 at room temperature to remove any excess unbound synthetic peptide. EGFR or erbB2 activities were assessed by incubation in peptide coated plates for 20 minutes at room temperature in 100 mM HEPES pH 7.4 at room temperature, adenosine trisphosphate (ATP) at Km concentration for the respective enzyme, 10 mM MnCl2, 0.1 mM Na3VO4, 0.2 mM DL-dithiothreitol (DIT), 0.1% Triton X-100 with test compound in DMSO (final concentration of 2.5%). Reactions were terminated by the removal of the liquid components of the assay followed by washing of the plates with PBS-T (phosphate buffered saline with 0.5% Tween 20).
The immobilised phospho-peptide product of the reaction was detected by immunological methods. Firstly, plates were incubated for 90 minutes at room temperature with anti-phosphotyrosine primary antibodies that were raised in the mouse (4G10 from Upstate Biotechnology). Following extensive washing, plates were treated with Horseradish Peroxidase (HRP) conjugated sheep anti-mouse secondary antibody (NXA931 from Amersham) for 60 minutes at room temperature. After further washing, HRP activity in each well of the plate was measured colorimetrically using 22′-Azino-di-[3-ethylbenzthiazoline sulfonate (6)] diammonium salt crystals (ABTS™ from Roche) as a substrate.
Quantification of colour development and thus enzyme activity was achieved by the measurement of absorbance at 405 nm on a Molecular Devices ThermoMax microplate reader. Kinase inhibition for a given compound was expressed as an IC50 value. […] The range of phosphorylation was calculated from the positive (vehicle plus ATP) and negative (vehicle minus ATP) control values.

T1 sequence (P00533 669-1210 limits assumed): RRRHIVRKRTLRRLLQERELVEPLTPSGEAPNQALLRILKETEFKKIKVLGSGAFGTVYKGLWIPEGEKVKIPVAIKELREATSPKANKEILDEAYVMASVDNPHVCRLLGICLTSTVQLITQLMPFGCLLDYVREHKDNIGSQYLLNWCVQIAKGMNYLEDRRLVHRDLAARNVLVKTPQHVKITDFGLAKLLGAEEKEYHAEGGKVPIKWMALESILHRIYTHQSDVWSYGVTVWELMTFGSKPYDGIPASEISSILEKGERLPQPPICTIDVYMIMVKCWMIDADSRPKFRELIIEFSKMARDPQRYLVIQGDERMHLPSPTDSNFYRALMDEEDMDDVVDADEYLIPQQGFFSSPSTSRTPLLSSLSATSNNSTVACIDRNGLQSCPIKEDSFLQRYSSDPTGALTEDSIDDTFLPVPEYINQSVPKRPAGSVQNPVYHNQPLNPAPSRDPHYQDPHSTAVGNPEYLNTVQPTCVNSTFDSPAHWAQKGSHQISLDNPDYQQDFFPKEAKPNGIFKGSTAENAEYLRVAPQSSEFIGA

For the compound `COc1cc2c(Nc3cccc(Cl)c3F)ncnc2cc1OC1CCN(C(=O)C2CCC(=O)N2)CC1` (stereo not drawn) [6[5], 5-{[4-({4-[3-chloro-2-fluoroanilino]-6-methoxyquinazolin-7-yl}oxy)piperidin-1-yl]carbonyl}pyrrolidin-2-one], the IC50 was determined as 397 nM in the data set on KB cells and 41 nM at EGFR tyrosine kinase.

Take `COc1cc2c(Nc3cccc(Cl)c3F)ncnc2cc1OC1CN(C(=O)[C@H](C)O)C1` [Example 3]: the IC50 with KB cells was 71 nM; at EGFR tyrosine kinase it was 17 nM.

For the compound `COc1cc2c(Nc3cccc(Cl)c3F)ncnc2cc1OC1CN(C(=O)[C@@H](C)O)C1` [Example 4, (2R)-1-[3-({4-[3-Chloro-2-fluoroanilino]-6-methoxyquinazolin-7-yl}oxy)azetidin-1-yl]-1-oxopropan-2-ol], the IC50 with KB cells stood at 48 nM; on EGFR tyrosine kinase, 8 nM.

For the compound `COCC(=O)N1CC[C@@H](Oc2cc3ncnc(Nc4cccc(Cl)c4F)c3cc2OC)C1` [Example 5, N-(3-Chloro-2-fluorophenyl)-6-methoxy-7-{[(3R)-1-(methoxyacetyl)pyrrolidin-3-yl]oxy}quinazolin-4-amine], the melting point lay within 73 to 77 °C. The same compound showed an IC50 with KB cells of 119 nM. Also, the half-maximal inhibitory concentration (IC50) at EGFR tyrosine kinase worked out at 217 nM.
